Our source for the Emax, IC50 and Activity values is ChEMBL document CHEMBL5104190, “Design, Synthesis, Biological Activity, and Structural Analysis of Novel Des-C-Ring and Aromatic-D-Ring Analogues of 1α,25-Dihydroxyvitamin D3” (J Med Chem, 2022).

The target of data set [1] is T1, Vitamin D3 receptor (Homo sapiens) (UniProt P11473).
T1 sequence (whole entry): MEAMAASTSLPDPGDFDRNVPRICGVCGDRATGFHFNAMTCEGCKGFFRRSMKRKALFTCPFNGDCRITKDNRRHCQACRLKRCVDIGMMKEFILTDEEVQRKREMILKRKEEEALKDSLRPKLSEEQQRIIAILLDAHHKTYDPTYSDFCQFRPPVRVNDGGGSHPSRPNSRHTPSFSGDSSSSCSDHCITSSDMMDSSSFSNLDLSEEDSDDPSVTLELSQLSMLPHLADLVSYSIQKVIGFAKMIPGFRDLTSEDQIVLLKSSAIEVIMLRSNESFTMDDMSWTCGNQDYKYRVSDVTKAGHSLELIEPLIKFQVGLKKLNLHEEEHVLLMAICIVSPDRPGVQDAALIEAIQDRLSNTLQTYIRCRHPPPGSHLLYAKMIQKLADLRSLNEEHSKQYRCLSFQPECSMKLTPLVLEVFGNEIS
In words: Competitive binding affinity to His-tagged human VDR LBD (156 to 453 residues) expressed in Escherichia coli […] (DE3) cells at 0.1 to 100 nM in presence of 1,25D3 by fluorescent polarization assay relative to (1R,3S)-5-(2-((1R,3aS,7aR)-1-((R)-6-hydroxy-6-methylheptan-2-yl)-7a-methyloctahydro-4H-inden-4-ylidene)ethylidene)-4-methylenecyclohexane-1,3-diol. The settings on record: dose 0.1-100 nM.

The next data set has as its target T2, CYP24A1 (Homo sapiens, UniProt Q07973).
T2 sequence (Q07973 whole entry): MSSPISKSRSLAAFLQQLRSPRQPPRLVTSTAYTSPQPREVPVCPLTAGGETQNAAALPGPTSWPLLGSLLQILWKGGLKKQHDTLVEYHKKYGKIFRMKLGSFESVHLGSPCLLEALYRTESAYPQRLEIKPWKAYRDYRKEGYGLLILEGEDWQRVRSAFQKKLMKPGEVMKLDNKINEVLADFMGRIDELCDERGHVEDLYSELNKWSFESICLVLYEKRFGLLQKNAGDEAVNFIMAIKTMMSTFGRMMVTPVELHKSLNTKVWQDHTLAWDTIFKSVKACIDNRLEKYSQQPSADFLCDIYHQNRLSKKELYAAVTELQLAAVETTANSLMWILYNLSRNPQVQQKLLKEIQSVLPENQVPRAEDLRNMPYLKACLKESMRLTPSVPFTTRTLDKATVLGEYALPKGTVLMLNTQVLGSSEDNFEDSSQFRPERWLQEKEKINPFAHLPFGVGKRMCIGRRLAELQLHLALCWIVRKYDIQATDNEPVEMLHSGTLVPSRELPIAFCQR
Description: Induction of CYP24A1 (unknown orgin) transcriptional activity trasfected in human MCF7 cells at 0.1 to 1000 nM incuabted for 48 hrs by luciferase reporter gene assay relative to (1R,3S)-5-(2-((1R,3aS,7aR)-1-((R)-6-hydroxy-6-methylheptan-2-yl)-7a-methyloctahydro-4H-inden-4-ylidene)ethylidene)-4-methylenecyclohexane-1,3-diol. Format: ADME, cell-based. The settings on record: MCF7 cells transfected with CYP24A1 luciferase reporter, dose 0.1-1000 nM. (In a reporter assay the amount or activity of a reporter protein is the signal.)

A further data set addresses T3, Vitamin D3 receptor (Homo sapiens, UniProt P11473).
T3 sequence (P11473 whole entry): T1 sequence (whole entry)
In words: Competitive binding affinity to His-tagged human VDR LBD (156 to 453 residues) expressed in Escherichia coli […] (DE3) cells in presence of 1,25D3 by fluorescent polarization assay.

A further data set deals with MCF7. Description: Increase in E-cadherin expression level in human MCF7 cells at 0.1 to 100 nM measured for 48 hrs by Western blot analysis. It counts as functional, cell-based. The settings on record: dose 0.1-100 nM. In general terms: Immunoblotting shows a protein as a band on a membrane.

Activity calls are given as the source filed them. The calls are words filed in the database; no cut-off is given here.

A word on the Emax: it is the greatest response seen or fitted, relative to the assay's reference. One may read the IC50 as the concentration needed to halve the response being measured. Regarding `C=C1/C(=C\C=C\c2cc(CCCCCC(C)(C)O)cc(CCCCCC(C)(C)O)c2)C[C@@H](O)C[C@@H]1O`, the Emax in data set [1] was 7.9%. This compound returned an Emax at 48 h at CYP24A1 of 102%. The IC50 on Vitamin D3 receptor is 15.7 nM. Also, the result with MCF7 was Active.

On to `C=C1/C(=C\C=C(/CCCCCC(C)(C)O)c2cccc(CCCCCC(C)(C)O)c2)C[C@@H](O)C[C@@H]1O`, for which, in data set [1], the Emax came out at 4.5%. On CYP24A1, this compound displayed an Emax at 48 h of 54%. Also, the IC50 on Vitamin D3 receptor is 27.3 nM. Besides, the result in the data set with MCF7 was Active.
